Measured values as given in patent publication US20140364417A1, “METHOD OF TREATING ATRIAL FIBRILLATION” (Gilead Sciences, Inc., priority 2013, published 2014).
“And” between values parts separate entries of the source, which are not always exact repeats. Equal entries are not always repeated. “Also recorded” adds a separate entry of the source.

Key:
[1] = tested on: Acetylcholine Mediated AF Model in Pigs; assay: Acetylcholine mediated AF model in pigs: dominant frequency, ventricular rate, arterial blood pressure during AF; assay type: in vivo, pig; conditions: for effect on arterial blood pressure during AF: FIG. 3 and FIG. 4; for effect on dominant frequency of atrial fibrillation / effect on ventricular rate during atrial fibrillation: ivabradine 0.25 mg/kg i.v. bolus; for effect on dominant frequency of atrial fibrillation: ranolazine 2.4 mg/kg bolus + 0.135 mg/kg/min; for effect on dominant frequency of atrial fibrillation / dominant frequency of AF after drug: FIG. 8; for effect on ventricular rate during atrial fibrillation: FIG. 9; for reduction of ventricular rate during AF / ventricular rate during AF after drug: ivabradine 0.25 mg/kg; for reduction of ventricular rate during AF: alone or shortly after ranolazine; for ventricular rate during AF after drug: before drug 269.7±6.2 (ivabradine) and 227.3±14.7 (ranolazine, combination); for dominant frequency of AF after drug: series with ivabradine 0.25 mg/kg, baseline 10.3±1.4 (ivabradine) and 9.0±0.8 (ranolazine, combination)
Protocol: (§1) Data were gathered from male Yorkshire pigs (n=16) weighing 35±2 kg (mean±SEM). The animals were preanesthetized with telazol (4.7 mg/kg, intramuscularly) and then anesthetized with alpha-chloralose (100 mg/kg, i.v., bolus followed by 40 mg/kg/h, i.v., continuous infusion). The animals were intubated and ventilation was maintained between 10-16 breaths/min with volumes between 400-500 mL. Vital signs including core body temperature, heart rate, and oxygen saturation were continuously monitored.
(§2) The right and left femoral veins were cannulated with 7Fr introducer sheaths using the Seldinger technique to insert catheters in the right atrial (RA) appendage for pacing and for positioning the intrapericardial catheter. Arterial blood pressure was continuously monitored from a femoral arterial sheath, and intravenous fluids were administered through the ear vein. The electrocardiogram (ECG) was recorded with a Prucka Cardiolab workstation (GE Medical Systems, Milwaukee, Wis.) from atrial and ventricular sites.
(§3) Ranolazine was given as a 2.4 mg/kg, i.v., bolus followed by continuous infusion of 0.135 mg/kg/min, i.v.
(§4) A nonsteerable, quadripolar electrode catheter (Bard Electrophysiology, Lowell Mass.) was placed in the right atrium (RA) via the femoral vein and a second quadripolar electrode catheter in the right ventricle via the jugular vein. A bipolar electrode was placed in the non-coronary cusp of the aorta through the left carotid artery to record the His bundle electrogram. A pigtail catheter was inserted in the left ventricle via the left femoral artery to record and calculate contractility [left ventricular dP/dt]. Transatrial access was employed to deliver acetylcholine (ACh) into the pericardial space. Specifically, a small puncture was made in the RA appendage with the stiff end of a coronary angioplasty guidewire (0.014-inch Wizdom guidewire, Cordis, Miami, Fla., USA) placed within the lumen of a soft infusion catheter (0.038-inch SOS straight-tip, open-ended angiographic guidewire, Bard Electrophysiology). This wire-within-wire system was advanced as a unit into an 8Fr multipurpose guide catheter (MP2, Boston Scientific, Boston Mass.) previously positioned in the RA appendage via a femoral vein under fluoroscopic guidance and into the pericardial space. The infusion catheter was left in the pericardial space for delivery of ACh and the inner guidewire was removed. Conformation of the infusion catheter on fluoroscopy to the curvature of the heart verified its location within the pericardial space. All of the pericardial fluid was then aspirated with the infusion catheter. Intrapericardial access is associated with a hematocrit <2%, indicating minimum trauma from the atrial puncture (Kumar et al., J Cardiovasc Electrophysiol 2009; 20:796-802). The presence of acetylcholinesterase can rapidly degrade ACh and prevent a sustained response to this neurotransmitter.
Atrial fibrillation (AF) was defined as an irregular atrial rhythm with an average cycle length <150 msec at all atrial sites, whereas atrial flutter was defined as a regular atrial rhythm with fixed cycle length >150 msec at all atrial sites. After baseline electrical testing was performed, AF initiation was attempted by decremental burst pacing at each atrial site down to loss of 1:1 capture. ACh (1 mL of 100 mM solution) along with a 1-mL saline flush was injected into the pericardial space via the transatrial infusion catheter. […] After 5 minutes of AF, the pericardial space was lavaged with saline (20 mL) via the transatrial pericardial catheter. At the end of lavage, no further pericardial fluid could be removed. Lavage was performed after 5 minutes of AF in order to minimize the mild systemic hypotension that was occasionally associated with ACh administration. The time to spontaneous termination of AF was recorded.
Dominant frequency of AF was analyzed during the 6th minute after AF initiation using the intracardiac electrograms from the right atrial appendage. […]

male Yorkshire pigs = assay: A-H, H-V, PR and QT intervals during right atrial pacing in anesthetized pigs; assay type: in vivo; conditions: for increase in PR interval: ivabradine 0.25 mg/kg, 30 min after ivabradine administration; for effect on atrial-His (A-H) interval: right atrial pacing at 180 beats/min, FIG. 6 left panel; for effect on atrial-His (A-H) interval / effect on PR interval: ivabradine 0.25 mg/kg bolus; for effect on PR interval: right atrial pacing at 180 bpm, FIG. 5 upper panel
Protocol: as §1, §2, §3, §4
The electrical stimulation protocol described below was performed in the control state and after the ivabradine bolus and after ranolazine administration and the combination of ranolazine and ivabradine. Burst pacing was performed after ACh injection into the pericardium and AF was invariably elicited. Ventricular rate during AF was determined by counting the R waves during the 6th minute of AF. Two episodes of AF separated by 10 min were induced to establish control levels.
A Bloom stimulator (Bloom Associates, Reading Pa.) was used to deliver constant-current rectangular stimuli for fixed-rate pacing as well as for delivering premature stimuli. To elicit AF, a burst pacing stimulation with a cycle length of 200 msec was performed. A-H, His-ventricular (H-V), PR and QT interval measurements were made during right atrial pacing at 130 and 180 beats/min.
The statistical tests were carried out with a SAS statistical package (SAS Institute, Cary, N.C.). […]

[2] = ivabradine 0.25 mg/kg i.v., ranolazine 2.4 mg/kg bolus + 0.135 mg/kg/min, pacing 130 beats/min
[3] = larger series, ivabradine 0.25 mg/kg i.v., ranolazine 2.4 mg/kg bolus + 0.135 mg/kg/min, pacing 180 beats/min, FIG. 6
[4] = pacing 130 beats/min, ranolazine 2.4 mg/kg bolus + 0.135 mg/kg/min
[5] = pacing 180 beats/min, ranolazine 2.4 mg/kg bolus + 0.135 mg/kg/min
[6] = pacing rate 180 beats/min, FIG. 2 (first series)

Structure (SMILES) | effect on arterial blood pressure during AF [1] | effect on dominant frequency of atrial fibrillation [1] | effect on ventricular rate during atrial fibrillation [1] | ventricular rate during AF after drug [1] | dominant frequency of AF after drug [1] | increase in A-H interval (male Yorkshire pigs; [2]) | increase in A-H interval (male Yorkshire pigs; [3]) | increase in PR interval (male Yorkshire pigs; [4]) | increase in PR interval (male Yorkshire pigs; [5]) | increase in A-H interval (male Yorkshire pigs; [6]) | effect on atrial-His (A-H) interval (male Yorkshire pigs) | effect on PR interval (male Yorkshire pigs) | also measured
COc1cc2c(cc1OC)CC(=O)N(CCCN(C)C[C@H]1Cc3cc(OC)c(OC)cc31)CC2 [ivabradine, 3-{3-[{[(7S)-3,4-dimethoxybicyclo[4.2.0]octa-1,3,5-trien-7-yl]methyll}-(methyl)amino]propyl}-7,8-dimethoxy-1,3,4,5-tetrahydro-2H-3-benzapenin-2-one] | Neither ivabradine (FIG. 4) nor ranolazine (FIG. 3) given alone improves; also recorded: small, not significant decrease | neither drug alone was effective | lowered ventricular rate | 247.2±9.5 beats/min | 9±0.7 Hz | 15.5 ms | 22.0 ± 3.5 ms | 16 ± 3.9 ms | 20 ± 3.5 ms | 31 ms and 31.2 ms | increased atrial-His (A-H) interval | increased PR interval | reduction of ventricular rate during AF [1]: 9%; reduction of ventricular rate during AF ([1]; 30 min after drug infusion): 22.5±6.0 beats/min and 22.53±6.0 beats/min; effect on QT interval (male Yorkshire pigs; right atrial pacing at 130 and 180 beats/min, FIG. 5 lower panel): not altered; also recorded: neither drug nor their combination altered QT interval; effect on His-ventricular (H-V) interval (male Yorkshire pigs; right atrial pacing at 130 and 180 beats/min, FIG. 6 right panel): unchanged; also recorded: neither drug nor their combination altered His-ventricular (H-V) interval
COc1ccccc1OCC(O)CN1CCN(CC(=O)Nc2c(C)cccc2C)CC1 (racemic) [ranolazine, (±)-N-(2,6-dimethylphenyl)-4-[2-hydroxy-3-(2-methoxyphenoxy)-propyl]-1-piperazineacetamide] | Neither ivabradine (FIG. 4) nor ranolazine (FIG. 3) given alone improves; also recorded: no significant improvement | neither drug alone was effective | not reduced; also recorded: did not | 197.1±17.4 beats/min | 7.8±0.9 Hz | 2.0 ± 2.6 ms | 13.8 ± 3.9 ms | 5 ± 1.8 ms | 19 ± 2.8 ms | 18 ms and 18.4 ms | did not | increased PR interval | change in arterial blood pressure during AF versus control (Δ Control/drug) ([1]; FIG. 3): 3.36 mmHg; HV interval after drug (male Yorkshire pigs; male, Yorkshire, pig, in vivo): 35 ms; QT interval after drug (male Yorkshire pigs; male, Yorkshire, pig, in vivo): 282 ms; A-H interval after drug (male Yorkshire pigs; representative experiment FIG. 7, pacing 180 beats/min, before drug 100 msec, ranolazine, then ivabradine 0.25 mg/kg): 107 ms; PR interval after drug (male Yorkshire pigs; representative experiment FIG. 7, pacing 180 beats/min, before drug 123 msec): 131 ms
